# Assay results: US20240252529A1, “ANTIVIRAL PHARMACEUTICAL COMPOSITION” (MARINOMED BIOTECH AG, priority 2020, published 2024)
# System: SARS-CoV-2 spike glycoprotein pseudotyped lentivirus
# Assay type: cell-based
# Conditions: comparative polymers at 100 μg/ml; FIG. 3
compound,measurement,value
"O=C[C@H](O)[C@@H](O)[C@@H](OS(=O)(=O)O)[C@H](O)CO [Gal-4-SO4, galactose-4-sulphate]",protection of target cells against infection,only poorly effective
